Target: Type-2 angiotensin II receptor (Sus scrofa)
Experiment: Displacement of [125I]-Ang II from pig uterus membrane angiotensin II type 2 (AT2) receptor

| Ki | Compound |
| --- | --- |
| 7.1 nM | CCCCOC(=O)NS(=O)(=O)c1sc(CC(C)C)cc1-c1ccc(Cn2cnc3cccnc32)cc1 [butyl (5-isobutylthien-2-yl)sulfonylcarbamate derivative] |
| 4 nM | CCCCOC(=O)NS(=O)(=O)c1sc(CC(C)C)cc1-c1ccc(Cn2cnc3ccccc32)cc1 [butyl (5-isobutylthien-2-yl)sulfonylcarbamate derivative] |

Second part, the molecule before the results:

| Compound | Ki |
| --- | --- |
| CCCCOC(=O)NS(=O)(=O)c1sc(CC(C)C)cc1-c1ccc(CC#N)cc1 [butyl (5-isobutylthien-2-yl)sulfonylcarbamate derivative] | 70 nM |
| CCCCOC(=O)NS(=O)(=O)c1sc(CC(C)C)cc1-c1ccc(Cn2c(CC)nc3ccccc32)cc1 [butyl (5-isobutylthien-2-yl)sulfonylcarbamate derivative] | 3.2 nM |
| CCCCOC(=O)NS(=O)(=O)c1sc(CC(C)C)cc1-c1ccc(Cn2ccnc2C)cc1 [butyl (5-isobutylthien-2-yl)sulfonylcarbamate derivative] | 0.5 nM |
